Results from US20250262198A1, “METHOD FOR TREATING MULTIPLE SCLEROSIS” (BEIJING INNOCARE PHARMA TECH CO., LTD., priority 2022, published 2025).

Experiments:
[1] = tested on: patients with relapsing-remitting multiple sclerosis (RRMS); assay: Randomized, double-blind, placebo-controlled phase 2 study of orelabrutinib in RRMS patients (Core part); format: in vivo, human; conditions: for percent reduction of cumulative number of new Gd+T1 brain lesions relative to placebo: ITT population; for Adjusted mean cumulative number of new Gd+T1 lesions from W 4 to W 24 / Adjusted mean cumulative number of new Gd+T1 lesions at Week 12 / % Reduction of cumulative number of new Gd+T1 lesions from Week 4 to Week 24 vs placebo/50 mg QD switch arm / % Reduction of cumulative number of new Gd+T1 brain lesions vs placebo / Annualized relapse rate (ARR): PHS population; for Adjusted mean cumulative number of new Gd+T1 lesions at Week 12: placebo 4.34
Procedure: This is a randomized, double-blind, placebo-controlled, phase 2 study of orelabrutinib in patients with relapsing-remitting multiple sclerosis (RRMS) that consists of 2 parts: a Core part and an Open-label Extension (OLE) part. The Core part is completed, and the OLE part is on-going.
The completed Core part consisted of a 4-week screening period and 24-week treatment period. Patients with RRMS were randomly assigned to 1 of 4 treatment groups in a 1:1:1:1 ratio: placebo, orelabrutinib 50 mg once daily (QD), orelabrutinib 50 mg twice daily (BID), or orelabrutinib 80 mg QD. At Week 13, patients in the placebo cohort were switched to orelabrutinib 50 mg QD.
Patients with RRMS were randomly assigned to 1 of 4 treatment groups: placebo, orelabrutinib (50 mg, once daily [QD]), orelabrutinib (80 mg QD) and orelabrutinib (50 mg, twice daily [BID]) at a 1:1:1:1 ratio. • Cohort 1: Placebo (Week 1-12)/orelabrutinib 50 mg QD (Week 13-24) • Cohort 2: Orelabrutinib 50 mg QD (Week 1-24) • Cohort 3: Orelabrutinib 80 mg QD (Week 1-24) • Cohort 4: Orelabrutinib 50 mg BID (Week 1-24)
At week 12 of the treatment period, subjects in Cohort 1 were switched to orelabrutinib at a starting daily dose of 50 mg. A separate open-label extension (OLE) study was developed to allow continued dosing, provided that safety and tolerability were acceptable.
Placebo or orelabrutinib was orally administered daily starting on Day 1 of the treatment period. Subjects returned to study site on Day 8 and every 4 weeks starting from Day 1 for trial visits and were assessed for safety and efficacy.
• Intent-to treat (ITT) population. 158 patients randomized: 40 in placebo, 37 in 50 mg QD cohort, 41 in 50 mg BID cohort, and 40 in 80 mg QD cohort. • 3 force majeure events during the study caused missing MRI data at Week 4, 8, or 12 timepoints: Ukraine war & crisis, COVID-19 pandemic outbreak, and FDA's partial clinical hold. • Post-hoc analysis set (PHS) population. 115 patients remaining after excluding patients who missed any one of the 3 MRI data points within first 12 weeks: 27 in placebo, 30 in 50 mg QD, 29 in 50 mg BID, and 29 in 80 mg QD. • 132 patients completed 12 weeks of treatment and 127 patients completed 24 weeks of treatment.
(PHS Population, N=115) The adjusted mean cumulative number, percent reduction (orelabrutinib vs placebo) associated with p-value are estimated from a Poisson regression model with a Pearson scale parameter with a log link function and offset by log number of scans as of Week 12. Baseline number of Gd+T1 brain lesions is included in the model as a continuous covariate.
The adjusted mean cumulative numbers are estimated from Poisson regression models with a Pearson scale parameter with a log link function and offset by log number of scans as of that visit. Baseline number of Gd+T1 brain lesions is included in the model as a continuous covariate.

[2] = tested on: MOG35-55-induced EAE mouse model; assay: MOG35-55-induced EAE mouse model of multiple sclerosis, oral orelabrutinib; format: in vivo, C57BL/6 mouse
Procedure: Multiple sclerosis (MS) is a chronic neuroinflammatory demyelinating disorder of the central nervous system (CNS). EAE (Experimental Autoimmune Encephalomyelitis) is the most common animal model of human MS as it is especially useful to investigate neuroinflammatory pathways. The synthesized peptide MOG35-55-induced EA E mouse model was used to evaluate the therapeutic potential of orelabrutinib. 100 μL emulsion consisted of 0.75 mg/ml MOG35-55 and 4 mg/mL CFA were injected subcutaneously into two different sites on each hind flank of each C57BL/6 mouse. 300 ng of pertussis toxin in 100 μL of PBS were injected intraperitoneally at the day of immunization and two days later. Mice were randomized into 2 groups as follows: vehicle and orelabrutinib 30 mg/kg/day. Each group had 10 animals. On the day of immunization, animals were dosed QD by PO gavage with either vehicle or test compound for 21 days.

C=CC(=O)N1CCC(c2ccc(C(N)=O)c(-c3ccc(Oc4ccccc4)cc3)n2)CC1 [orelabrutinib, 2-(4-phenoxyphenyl)-6-[1-(prop-2-enoyl)piperidin-4-yl]pyridine-3-carboxamide]
percent reduction of cumulative number of new Gd+T1 brain lesions relative to placebo ([1]; Week 12, 50 mg BID): 78.8% | percent reduction of cumulative number of new Gd+T1 brain lesions relative to placebo ([1]; Week 12, 50 mg QD): 73.3% | percent reduction of cumulative number of new Gd+T1 brain lesions relative to placebo ([1]; Week 12, 80 mg QD): 80.5% | Adjusted mean cumulative number of new Gd+T1 lesions from W 4 to W 24 ([1]; 50 mg BID (N=29)): 1.08 | Adjusted mean cumulative number of new Gd+T1 lesions at Week 12 ([1]; 50 mg BID (N=29)): 0.82 | % Reduction of cumulative number of new Gd+T1 lesions from Week 4 to Week 24 vs placebo/50 mg QD switch arm ([1]; 50 mg BID, P 0.0114): 83.3% | Adjusted mean cumulative number of new Gd+T1 lesions from W 4 to W 24 ([1]; 50 mg QD (N=30)): 2.10 | Adjusted mean cumulative number of new Gd+T1 lesions at Week 12 ([1]; 50 mg QD (N=30)): 1.14 | % Reduction of cumulative number of new Gd+T1 lesions from Week 4 to Week 24 vs placebo/50 mg QD switch arm ([1]; 50 mg QD, P 0.0958): 67.4% | Adjusted mean cumulative number of new Gd+T1 lesions from W 4 to W 24 ([1]; 80 mg QD (N=29)): 0.50 | Adjusted mean cumulative number of new Gd+T1 lesions at Week 12 ([1]; 80 mg QD (N=29)): 0.42 | % Reduction of cumulative number of new Gd+T1 lesions from Week 4 to Week 24 vs placebo/50 mg QD switch arm ([1]; 80 mg QD, P 0.0037): 92.3% | % Reduction of cumulative number of new Gd+T1 brain lesions vs placebo ([1]; Week 12, 50 mg BID (N=29), P 0.0073): 81.0% | % Reduction of cumulative number of new Gd+T1 brain lesions vs placebo ([1]; Week 12, 50 mg QD (N=30), P 0.0278): 73.8% | % Reduction of cumulative number of new Gd+T1 brain lesions vs placebo ([1]; Week 12, 80 mg QD (N=29), P 0.0018): 90.4% | Annualized relapse rate (ARR) ([1]; Week 24, 50 mg BID): 0.12 | Annualized relapse rate (ARR) ([1]; Week 24, 50 mg QD): 0.05 | Annualized relapse rate (ARR) ([1]; Week 24, 80 mg QD): 0.06 | Annualized relapse rate (ARR) ([1]; Week 24, placebo/50 mg QD switch arm (placebo Week 1-12, orelabrutinib 50 mg QD Week 13-24)): 0.14 | Adjusted mean cumulative number of new Gd+T1 lesions from W 4 to W 24 ([1]; switch arm: placebo Week 1-12 / orelabrutinib 50 mg QD Week 13-24 (N=27)): 6.45 | Annualized relapse rate (ARR) compared to the placebo group ([1]; all orelabrutinib cohorts, Week 12, sustained through Week 24): reduced | control of new T1 lesions ([1]; all orelabrutinib cohorts, after 4 weeks of treatment, effect sustained up to 24 weeks): Control of new T1 lesions was achieved | average clinical score (EAE) ([2]; 30 mg/kg/day PO QD, day 15 post-immunization, vehicle 2.0): 0.9 | average clinical score (EAE) ([2]; 30 mg/kg/day PO QD, day 21, p<0.05, vehicle 1.5): 0.6 | body weight loss associated with EAE ([2]; 30 mg/kg/day PO QD, vs vehicle): reduced weight loss | reduction of EAE score ([2]; 30 mg/kg/day oral): 50% | EAE severity ([2]; 30 mg/kg/day oral, vs vehicle): markedly ameliorated EAE severity
